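Interpolation was linear, between the two tested concentrations surrounding the appropriate level; five concentrations were tested over 48 hours in 96-well plates. GI50: concentration for 50% inhibition of growth. TGI marks complete inhibition of growth.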 Where a SMILES comes first, the peptide text is derived from it. The star is where a group is joined. Fmoc = O=C(OCC1c2ccccc2-c2ccccc21)*; Boc = CC(C)(C)OC(=O)*
Legend:
Assay in all cases: NCI anticancer screen, dose series, 48 h
HL-60(TB) leukemia = test system: HL-60(TB) leukemia
HOP-62 NSCLC = test system: HOP-62 NSCLC
KM12 colon = test system: KM12 colon
NCI-H460 lung = test system: NCI-H460 lung
OVCAR-4 ovarian = test system: OVCAR-4 ovarian
RPMI-8226 leukemia = test system: RPMI-8226 leukemia
SF-268 CNS = test system: SF-268 CNS
SF-539 CNS = test system: SF-539 CNS
SK-OV-3 ovarian = test system: SK-OV-3 ovarian
UACC-62 melanoma = test system: UACC-62 melanoma

Structure (SMILES)	TGI (HL-60(TB) leukemia) [µM]	TGI (HOP-62 NSCLC) [µM]	TGI (KM12 colon) [µM]	TGI (NCI-H460 lung) [µM]	TGI (OVCAR-4 ovarian) [µM]	TGI (RPMI-8226 leukemia) [µM]	TGI (SF-268 CNS) [µM]	TGI (SF-539 CNS) [µM]	TGI (SK-OV-3 ovarian) [µM]	TGI (UACC-62 melanoma) [µM]	GI50 (HL-60(TB) leukemia) [µM]	GI50 (HOP-62 NSCLC) [µM]	GI50 (KM12 colon) [µM]	GI50 (NCI-H460 lung) [µM]	GI50 (OVCAR-4 ovarian) [µM]	GI50 (RPMI-8226 leukemia) [µM]	GI50 (SF-268 CNS) [µM]	GI50 (SF-539 CNS) [µM]	GI50 (SK-OV-3 ovarian) [µM]	GI50 (UACC-62 melanoma) [µM]
CSc1c(C#N)c(N)nc2c(N=Nc3ccc(Cl)cc3)c(N)nn12	5.23	28.6	11.8	> 45.6	6.68	7.12	5.7	12.3	67.1	8.77	–	–	–	–	–	–	–	–	–	–
CCOC(=O)C(C(=S)Nc1ccccc1)c1nn2c(=O)cc(C)nc2s1 (stereo not given)	43.8	> 100	68.8	81.1	> 100	67.5	> 100	86.6	65.7	66.1	–	–	–	–	–	–	–	–	–	–
N#Cc1c(N)sc2c1-c1ccccc1OC2	82.1	> 100	> 100	> 100	88	> 100	> 100	> 100	> 100	> 100	–	–	–	–	–	–	–	–	–	–
COc1ccc(/C=C2\N=C(c3ccccc3)N(N=C3NC(=O)CC(=O)N3)C2=O)cc1	> 100	> 100	> 100	> 100	> 100	> 100	> 100	> 100	> 100	> 100	–	–	–	–	–	–	–	–	–	–
CC(C)(C)OC(=O)NCCCCC(NC(=O)OCC1c2ccccc2-c2ccccc21)C(=O)N1CCCC1C(=O)NCC(N)=O (stereo not drawn) (Fmoc-Lys(Boc)-Pro-Gly-NH2; configuration not given here)	> 100	> 100	38.3	37.9	44.6	> 100	> 100	> 100	26.5	> 100	–	–	–	–	–	–	–	–	–	–
CCOC(=O)c1ccc(C(=O)/C(C(C)=O)=C2\CCCN2C)n1C	64.2	> 100	> 100	> 100	> 100	> 100	> 100	22.8	> 100	> 100	–	–	–	–	–	–	–	–	–	–
Cc1cc(Cc2c(F)c(F)c(C(c3cc(C)no3)c3c(F)c(F)c(F)c(F)c3F)c(F)c2F)on1 (stereo not given)	> 39.6	> 100	> 100	> 100	> 100	> 100	> 100	> 100	> 100	> 100	–	–	–	–	–	–	–	–	–	–
Nc1nc(N)c2ncn(Cc3ccccc3CCl)c2n1	> 100	> 100	> 100	> 100	> 100	> 100	> 100	> 100	> 100	> 100	–	–	–	–	–	–	–	–	–	–
CC(C)(C)c1cc(C2=NN(c3ccccc3)C(c3ccccc3)C2)cc(C(C)(C)C)c1O (stereo not given)	> 100	> 100	> 100	> 100	> 100	> 100	> 100	> 100	> 100	> 100	–	–	–	–	–	–	–	–	–	–
CCn1cc(C(=O)O)c(=O)c2cc3c(cc21)S(=O)(=O)CC3	> 100	> 100	> 100	> 100	> 100	> 100	> 100	> 100	> 100	> 100	–	–	–	–	–	–	–	–	–	–
O=C(CCCCCCC(=O)Nc1cccnc1)NO	31.6	> 100	> 44.6	> 100	> 100	> 29.4	> 61	> 100	> 71.8	18.5	–	–	–	–	–	–	–	–	–	–
N#C/C(=C\NC(=S)c1ccncc1)c1nc2ccccc2s1	> 100	> 100	> 100	> 100	> 100	> 100	> 100	> 100	> 100	> 100	–	–	–	–	–	–	–	–	–	–
O=C(Cc1nccc2c1[nH]c1ccccc12)OC1C#CCSCC#C/C=C\1 (stereo not given)	> 100	> 100	> 100	> 100	> 100	> 100	> 100	> 100	> 100	> 100	–	–	–	–	–	–	–	–	–	–
Cc1ccc(O)c(-c2cc(-c3cccc(Cl)c3)c(C#N)c(N)n2)c1	68.6	48.2	64.2	54	41.3	48.4	51.3	52	66.2	35.9	–	–	–	–	–	–	–	–	–	–
O=C(O)c1cn2c3c(cc(N4CCN(CCO)CC4)cc3c1=O)SCC2	> 100	> 100	> 100	> 100	> 100	> 100	> 100	> 100	> 100	> 100	–	–	–	–	–	–	–	–	–	–
COc1ccc(/C=C2\CCC(CNc3ccc(OC)cc3)C2=O)cc1 (stereo not given)	17.5	> 100	23.8	> 85.3	45.7	> 24	34.1	36.4	> 100	48	–	–	–	–	–	–	–	–	–	–
COC(=O)C1=C(O)C(C(=O)OC)[C@]2(O)[C@H](C(=O)OC)[C@H]1C[C@@H](c1c(Cl)cccc1Cl)[C@H]2C(=O)OC (stereo not given in full)	18.7	10.8	8.6	6.55	30.4	3.38	12.9	3.78	14.2	5.56	–	–	–	–	–	–	–	–	–	–

Structure (SMILES)	TGI (HL-60(TB) leukemia) [µM]	TGI (HOP-62 NSCLC) [µM]	TGI (KM12 colon) [µM]	TGI (NCI-H460 lung) [µM]	TGI (OVCAR-4 ovarian) [µM]	TGI (RPMI-8226 leukemia) [µM]	TGI (SF-268 CNS) [µM]	TGI (SF-539 CNS) [µM]	TGI (SK-OV-3 ovarian) [µM]	TGI (UACC-62 melanoma) [µM]	GI50 (HL-60(TB) leukemia) [µM]	GI50 (HOP-62 NSCLC) [µM]	GI50 (KM12 colon) [µM]	GI50 (NCI-H460 lung) [µM]	GI50 (OVCAR-4 ovarian) [µM]	GI50 (RPMI-8226 leukemia) [µM]	GI50 (SF-268 CNS) [µM]	GI50 (SF-539 CNS) [µM]	GI50 (SK-OV-3 ovarian) [µM]	GI50 (UACC-62 melanoma) [µM]
COC(=O)C1CCC(=O)N1C(c1ccc(OC)cc1)c1ccc(OC)cc1 (stereo not given)	> 100	> 100	> 100	> 100	> 100	> 100	> 100	> 100	> 100	> 100	–	–	–	–	–	–	–	–	–	–
CC1OC2(CC(OCc3ccccc3)C1OCc1ccccc1)OCCO2 (stereo not given)	48.9	> 100	> 100	> 100	> 100	> 100	> 100	> 100	> 100	> 100	–	–	–	–	–	–	–	–	–	–
Cc1c2cnccc2c(C)c2c1c1ccccc1n2CCCCCCNCc1ccccc1	9.35	7.14	3.08	1.86	1.25	3.44	2.76	3.61	7.24	4.16	–	–	–	–	–	–	–	–	–	–
CCOC(=O)c1c(N2CCCC2)[nH]c(=O)c(C(c2ccco2)c2c(O)c(C(=O)OCC)c(N3CCCC3)[nH]c2=O)c1O	> 100	> 100	> 100	> 100	> 100	> 100	> 100	> 100	> 100	> 100	–	–	–	–	–	–	–	–	–	–
Brc1ccc2c([C@H]3CN[C@@H](c4c[nH]c5cc(Br)ccc45)CN3)c[nH]c2c1	4.22	23.8	3.28	4.15	4.69	7.15	20.4	7.46	22.7	23.2	–	–	–	–	–	–	–	–	–	–
CC(=O)OCC1OC(SC2OC(COC(C)=O)C(OC(C)=O)C(OC(C)=O)C2OC(C)=O)C(OC(C)=O)C(OC(C)=O)C1OC(C)=O (stereo not given)	> 100	> 100	> 100	> 100	> 100	> 100	> 100	> 100	> 100	> 100	–	–	–	–	–	–	–	–	–	–
C#CC1(O)C(COP(=O)(O)OCC2OC(n3ccc(NCCCCCCCCCCCCCCCCCC)nc3=O)C(O)C2O)OC(n2ccc(N)nc2=O)C1O (stereo not given)	19.5	46.7	26.6	34.4	34.8	> 73.8	38.1	34.5	> 59.4	10.3	–	–	–	–	–	–	–	–	–	–
CNC(=O)N(C)COC	> 100	> 100	> 100	> 100	> 100	> 100	> 100	> 100	> 100	> 100	–	–	–	–	–	–	–	–	–	–
O=C1CCCC/C1=C\c1ccc(Br)cc1	7.23	42.8	5.83	98.2	46.7	57.3	36.3	37.1	44.5	19.6	–	–	–	–	–	–	–	–	–	–
Cc1cc(C)nc(SC(C)C(=O)N/N=C/c2ccc(OCc3ccccc3)cc2)n1 (stereo not given)	38.3	> 100	> 100	> 100	> 100	41.9	> 100	> 100	> 100	92.5	–	–	–	–	–	–	–	–	–	–
Nc1nc(Cl)cc(NCCC2(CO)CCC2)n1	> 100	> 100	> 100	> 100	> 100	> 100	> 100	> 100	> 100	> 100	–	–	–	–	–	–	–	–	–	–
O=C1/C(=C/c2ccc(Cl)cc2)N=C(c2ccccc2)N1CCc1cccs1	90.2	> 100	> 100	> 100	> 100	83.4	> 100	> 100	> 100	63.2	21.4	47.3	22	20.1	7.72	14.5	31.7	48.2	55.9	13.8
O=S(=O)(O)ON=C1c2ccccc2-c2ccccc21	> 100	> 100	> 100	> 100	> 100	> 100	> 100	> 100	> 100	> 100	–	–	–	–	–	–	–	–	–	–
NCCCNC1(c2cc3ccccc3s2)CCCCC1	14.8	27.8	14.7	4.06	25.5	5.88	24.7	4.23	28.6	3.87	–	–	–	–	–	–	–	–	–	–
CC1C2CC(C(S(=O)(=O)N3CCOCC3)/C2=N\O)C1(C)C (stereo not given)	> 100	> 100	> 100	> 100	> 100	> 100	> 100	> 100	> 100	> 100	–	–	–	–	–	–	–	–	–	–
Cc1noc2nnn(-c3ccc(Cl)cc3)c(=O)c12	3.57	29.7	31.1	21.3	57.3	3.11	22.1	1.73	26.5	17.8	–	–	–	–	–	–	–	–	–	–
N#CCCN(CCC#N)c1ccc(/C=C2\N=C(c3ccccc3)N(NC(N)=S)C2=O)cc1	> 100	> 100	> 100	> 100	> 100	> 100	> 100	> 100	> 100	> 100	–	–	–	–	–	–	–	–	–	–

Source: PubChem BioAssay (NCI)
